The source of these data is patent US12195476B2, “Synthesis method of furoimidazopyridine compound, crystal form of furoimidazopyridine compound, and crystal form of salt thereof” (HANGZHOU HIGHLIGHTLL PHARMACEUTICAL CO., LTD, priority 2019, dated 2025).

Experiment [1] has as its system IL-6-induced STAT3 phosphorylation. Conditions: result in words; cited from earlier work.
In another experiment the target is JAK1 (Homo sapiens, UniProt P23458). Conditions: result in words; cited from earlier work.
Sequence of JAK1 (P23458 whole entry): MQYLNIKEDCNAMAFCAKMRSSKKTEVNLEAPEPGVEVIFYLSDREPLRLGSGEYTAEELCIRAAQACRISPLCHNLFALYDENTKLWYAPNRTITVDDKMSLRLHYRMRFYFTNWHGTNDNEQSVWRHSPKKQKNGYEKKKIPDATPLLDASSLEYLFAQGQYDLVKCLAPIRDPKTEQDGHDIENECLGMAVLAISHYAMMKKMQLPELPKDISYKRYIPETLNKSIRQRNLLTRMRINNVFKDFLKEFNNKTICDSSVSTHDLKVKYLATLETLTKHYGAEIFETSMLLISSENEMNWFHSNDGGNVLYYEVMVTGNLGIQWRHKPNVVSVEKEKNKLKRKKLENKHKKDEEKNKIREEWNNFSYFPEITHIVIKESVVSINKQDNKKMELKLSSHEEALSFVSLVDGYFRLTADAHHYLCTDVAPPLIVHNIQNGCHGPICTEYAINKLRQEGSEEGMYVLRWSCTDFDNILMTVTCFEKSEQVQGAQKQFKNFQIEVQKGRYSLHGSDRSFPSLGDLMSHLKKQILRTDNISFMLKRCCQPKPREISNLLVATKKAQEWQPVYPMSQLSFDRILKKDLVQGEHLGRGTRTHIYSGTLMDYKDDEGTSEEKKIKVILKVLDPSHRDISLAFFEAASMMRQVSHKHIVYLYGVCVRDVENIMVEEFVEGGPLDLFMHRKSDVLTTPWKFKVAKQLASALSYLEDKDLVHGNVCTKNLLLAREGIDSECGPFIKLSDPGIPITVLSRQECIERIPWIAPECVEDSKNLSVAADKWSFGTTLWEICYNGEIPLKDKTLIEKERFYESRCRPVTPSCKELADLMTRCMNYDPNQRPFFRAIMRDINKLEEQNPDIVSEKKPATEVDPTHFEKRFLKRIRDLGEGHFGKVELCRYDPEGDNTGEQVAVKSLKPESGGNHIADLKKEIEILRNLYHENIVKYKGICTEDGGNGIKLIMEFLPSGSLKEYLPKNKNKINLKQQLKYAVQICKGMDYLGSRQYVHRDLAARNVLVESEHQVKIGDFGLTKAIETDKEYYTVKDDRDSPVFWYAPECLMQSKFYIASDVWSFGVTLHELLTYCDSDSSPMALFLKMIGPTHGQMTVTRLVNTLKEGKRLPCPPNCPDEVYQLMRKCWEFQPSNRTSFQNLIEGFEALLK
Experiment [2] concerns thrombopoietin-induced STAT3 phosphorylation. Conditions: result in words; cited from earlier work.
Another experiment concerns the target T1, TYK2 (Homo sapiens, UniProt P29597).
T1 construct: purchased Reaction Biology Corp, Malvern, PA (contract test)
In words: TYK2 biochemical test (33P-ATP filter binding kinase assay, Reaction Biology Corp). Conditions: 2 hours at room temperature. On the procedure:
An appropriate amount of a compound of formula I was weighed for TYK2 biochemical test.
The test was conducted by Reaction Biology Corp, Malvern, PA (Anastassiadis et al. Nat Biotechnol. 2011; 29(11):1039-45). The step is briefly described as follows.
Basic reaction buffer: 20 mM Hepes (pH 7.5), 10 mM MgCl2, 1 mM EGTA, 0.02% Brij35, 0.02 mg/ml BSA, 0.1 mM Na3VO4, 2 mM DTT and 1% DMSO. The required cofactor was added to each kinase reaction respectively.
• 1. Preparing the designated substrate in the newly prepared basic reaction buffer; • 2. Transferring the required cofactor to the above matrix solution; • 3. Transferring the designated kinase to the substrate solution and mixing well slightly; • 4. Transferring a compound of formula I in DMSO to the kinase reaction mixture with Acoustic technique (Echo550; nanoliter range), culturing for 20 minutes at room temperature; • 5. Introducing ^33P-ATP (specific activity: 10 μCi/μl) to the reaction mixture to trigger a reaction; • 6. Culturing at room temperature and conducting a kinase reaction for 2 hours; • 7. Plotting the reaction on P81 ion exchange paper; • 8. Testing the kinase activity with a filter binding assay.

T1 sequence (P29597 whole entry): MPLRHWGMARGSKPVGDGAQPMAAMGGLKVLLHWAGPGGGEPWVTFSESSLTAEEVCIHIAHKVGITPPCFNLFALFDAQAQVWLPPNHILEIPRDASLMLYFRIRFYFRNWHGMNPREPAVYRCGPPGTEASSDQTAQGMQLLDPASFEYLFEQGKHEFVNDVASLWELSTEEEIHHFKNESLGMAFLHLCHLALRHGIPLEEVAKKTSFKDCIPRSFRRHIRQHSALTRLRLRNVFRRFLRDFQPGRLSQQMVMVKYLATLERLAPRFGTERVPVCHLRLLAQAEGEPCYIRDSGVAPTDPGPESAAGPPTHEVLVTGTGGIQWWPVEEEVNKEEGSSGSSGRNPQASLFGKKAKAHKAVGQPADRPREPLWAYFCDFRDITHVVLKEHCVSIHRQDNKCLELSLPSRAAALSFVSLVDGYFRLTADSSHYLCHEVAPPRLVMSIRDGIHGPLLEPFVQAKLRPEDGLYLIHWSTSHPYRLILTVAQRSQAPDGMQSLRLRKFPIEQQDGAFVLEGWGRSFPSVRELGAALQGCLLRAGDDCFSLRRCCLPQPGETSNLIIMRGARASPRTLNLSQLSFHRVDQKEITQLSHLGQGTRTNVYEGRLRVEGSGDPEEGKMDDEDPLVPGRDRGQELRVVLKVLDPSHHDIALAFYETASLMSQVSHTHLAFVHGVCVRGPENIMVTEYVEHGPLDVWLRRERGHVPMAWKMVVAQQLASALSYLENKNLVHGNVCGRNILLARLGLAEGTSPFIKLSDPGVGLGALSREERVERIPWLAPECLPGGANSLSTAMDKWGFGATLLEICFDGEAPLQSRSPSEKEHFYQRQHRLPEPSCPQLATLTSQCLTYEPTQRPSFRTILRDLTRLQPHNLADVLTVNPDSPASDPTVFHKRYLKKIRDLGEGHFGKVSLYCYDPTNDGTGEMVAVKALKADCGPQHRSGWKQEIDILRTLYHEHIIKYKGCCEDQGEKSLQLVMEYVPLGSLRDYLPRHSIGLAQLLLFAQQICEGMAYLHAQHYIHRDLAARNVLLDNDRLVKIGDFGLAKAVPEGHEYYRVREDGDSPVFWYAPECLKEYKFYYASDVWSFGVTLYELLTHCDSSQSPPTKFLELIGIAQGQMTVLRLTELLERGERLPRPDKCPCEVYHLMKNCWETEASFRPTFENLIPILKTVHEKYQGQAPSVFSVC

On to `C[C@@H](O)c1nc2cnc3ccoc3c2n1[C@H]1CC[C@H](CC#N)OC1` [compound I, 2-[(2R,5S)-5-[2-[(R)-1-hydroxyethyl]furo[3,2-b]imidazo[4,5-d]pyridin-1-yl]tetrahydropyran-2-yl]acetonitrile], for which the “inhibition of IL-6-induced STAT3 phosphorylation” value in experiment [1] is reported as “demonstrated selective inhibition”. Moreover, the JAK1 inhibition result on JAK1 was “potent and selective JAK1 inhibitor”. In addition, the “inhibition of thrombopoietin-induced STAT3 phosphorylation” value in experiment [2] is “did not show selective inhibition”. For the same molecule, the half-inhibitory concentration (IC50) at TYK2 was less than 0.01 µM.
